Structures can show the parent of a compound that is named as a salt.
Assays:
Type in all cases: cell-based
E. cloacae A9656 = test: MIC, serial two-fold agar dilution (Table 1); details: Enterobacter cloacae, Mueller-Hinton agar
Procedure: (§1) Minimum inhibitory concentrations (MIC) of BB-S 651, BB-S 669 and BB-S 676 were determined by serial two-fold agar dilution method using Steers' apparatus on Mueller-Hinton agar plate against 15 test organisms for primary screening as shown in Table 1.

E. coli A15148 = test: MIC, serial two-fold agar dilution (Table 1); details: Escherichia coli; E. coli A15148, cephalothin-resistant; Mueller-Hinton agar
Procedure: as §1

E. coli A15164 = test: MIC, serial two-fold agar dilution (Table 1); details: Escherichia coli; E. coli A15164, cephalothin-resistant; Mueller-Hinton agar
Procedure: as §1

E. coli A9660 = test: MIC, serial two-fold agar dilution (Table 1); details: Escherichia coli; E. coli A9660, cephalothin-sensitive; Mueller-Hinton agar
Procedure: as §1

E. coli Juhl A15119 = test: MIC, serial two-fold agar dilution (Table 1); details: Escherichia coli, JUHLA15119; E. coli Juhl A15119, cephalothin-sensitive; Mueller-Hinton agar
Procedure: as §1

Ps. aeruginosa A15150 = test: MIC, serial two-fold agar dilution (Table 1); details: Pseudomonas aeruginosa, Mueller-Hinton agar
Procedure: as §1

Ps. aeruginosa A20229 = test: MIC, serial two-fold agar dilution (Table 1); details: Pseudomonas aeruginosa, Mueller-Hinton agar
Procedure: as §1

Ps. aeruginosa A20717 = test: MIC, serial two-fold agar dilution (Table 1); details: Pseudomonas aeruginosa, Mueller-Hinton agar
Procedure: as §1

Ps. aeruginosa A20718 = test: MIC, serial two-fold agar dilution (Table 1); details: Pseudomonas aeruginosa, Mueller-Hinton agar
Procedure: as §1

Ps. aeruginosa A9843 = test: MIC, serial two-fold agar dilution (Table 1); details: Pseudomonas aeruginosa, Mueller-Hinton agar
Procedure: as §1

S. aureus #193 = test: MIC, serial two-fold agar dilution (Table 1); details: Staphylococcus aureus; S. aureus #193, penicillinase-producing; Mueller-Hinton agar; read-out: MIC
Procedure: as §1

S. aureus 209P A9497 = test: MIC, serial two-fold agar dilution (Table 1); details: Staphylococcus aureus; S. aureus 209P A9497; Mueller-Hinton agar; read-out: MIC
Procedure: as §1

[1] = test system: S. aureus BX-1633-2 A9606; test: MIC, serial two-fold agar dilution (Table 1); details: Staphylococcus aureus, BX16332A9606; S. aureus BX-1633-2 A9606, penicillinase-producing; Mueller-Hinton agar; read-out: MIC
Procedure: as §1

S. aureus Smith A9537 = test: MIC, serial two-fold agar dilution (Table 1); details: Staphylococcus aureus, SMITHA9537, Mueller-Hinton agar
Procedure: as §1

S. marcescens A20019 = test: MIC, serial two-fold agar dilution (Table 1); details: Serratia marcescens, Mueller-Hinton agar
Procedure: as §1

E. coli (Gn-Ia) = test: In vitro activity, MIC of strain group (Table 2); details: Escherichia coli, 7 strains, read-out: Geometric mean of MIC
Procedure: as §1

Neisseria sp. = test: In vitro activity, MIC of strain group (Table 2); details: Gn-IV Neisseria sp., 6 strains; read-out: Geometric mean of MIC
Procedure: as §1

P. putida = test: In vitro activity, MIC of strain group (Table 2); details: Pseudomonas putida; Gn-III P. putida, 5 strains; read-out: Geometric mean of MIC
Procedure: as §1

S. aureus (Gp-Ia) = test: In vitro activity, MIC of strain group (Table 2); details: Staphylococcus aureus, 12 strains, read-out: Geometric mean of MIC
Procedure: as §1

S. aureus (Gp-Ib) = test: In vitro activity, MIC of strain group (Table 2); details: Staphylococcus aureus, 16 strains, read-out: Geometric mean of MIC
Procedure: as §1

E. cloacae = test: In vitro activity, MIC of strain group (Table 2); details: Enterobacter cloacae; Gn-II E. cloacae, 7 strains; read-out: Geometric mean of MIC

## CN(C)Cc1ccc[n+](CC2=C(C(=O)[O-])N3C(=O)C(NC(=O)[C@H](NC(=O)c4cnc5cccnc5c4O)c4ccc(O)cc4)C3SC2)c1 (stereo partly drawn) [BB-S 651, 7-[D-α-(4-Hydroxy-1,5-naphthyridine-3-carboxamido)-α-(4-hydroxyphenyl)acetamido]-3-(3-N,N-dimethylaminomethylpyridinium)methyl-3-cephem-4-carboxylate Hydrochloride]
E. cloacae A9656
  MIC: 12.5 µg/mL
E. coli A15148
  MIC: 3.1 µg/mL
E. coli A15164
  MIC: 25 µg/mL
E. coli A9660
  MIC: 1.6 µg/mL
E. coli Juhl A15119
  MIC: 6.3 µg/mL
Ps. aeruginosa A15150
  MIC: 0.8 µg/mL
Ps. aeruginosa A20229
  MIC: 0.8 µg/mL
Ps. aeruginosa A20717
  MIC: 1.6 µg/mL
Ps. aeruginosa A20718
  MIC: 0.8 µg/mL
Ps. aeruginosa A9843
  MIC: 1.6 µg/mL
S. aureus #193
  MIC: 6.3 µg/mL
S. aureus 209P A9497
  MIC: 0.8 µg/mL
[1]
  MIC: 6.3 µg/mL
S. aureus Smith A9537
  MIC: 3.1 µg/mL
S. marcescens A20019
  MIC: 50 µg/mL
E. coli (Gn-Ia)
  MIC: 2.6 µg/mL
Neisseria sp.
  MIC: 1.6 µg/mL
P. putida
  MIC: 22 µg/mL
S. aureus (Gp-Ia)
  MIC: 3.7 µg/mL
S. aureus (Gp-Ib)
  MIC: 42 µg/mL
E. cloacae
  MIC: > 100 µg/mL

## CCN1CCN(C(=O)N[C@@H](C(=O)N[C@@H]2C(=O)N3C(C(=O)O)=C(CSc4nnnn4C)CS[C@H]23)c2ccc(O)cc2)C(=O)C1=O [Cefoperazone, reference compound]
E. coli (Gn-Ia)
  MIC: 0.2 µg/mL
Neisseria sp.
  MIC: 0.8 µg/mL
P. putida
  MIC: > 100 µg/mL
S. aureus (Gp-Ia)
  MIC: 1.6 µg/mL
S. aureus (Gp-Ib)
  MIC: 17 µg/mL

Reference: patent US4288590A, “7 -[Dα-(4-Hydroxy-1,5-naphthyridine-3-carboxamido)-α-arylacetam ido]-3-(N,N-dimethyl-aminomethylpyridinium) methyl-3-cephem-4-carboxylates” (Bristol-Myers Company, priority 1980, dated 1981)
